Each structure is given as a SMILES string. Read-outs that look alike come from different tables or passages of the source.

From patent US20250221988A1 (Cullgen (Shanghai), Inc., priority 2022, published 2025) come the findings set out here.

In one assay the test system is MOLM-13 cells. Briefly: Cell viability assay (CellTiter-Glo) in MOLM-13 cells. The format is cell-based. (In ATP-based viability assays light output follows the ATP content of the culture.)
The test system of the next assay is MV4;11 cells. Briefly: Cell viability assay (CellTiter-Glo) in MV4;11 cells. Format: cell-based. The note with it: read-out: MV4. The procedure, abridged: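 After three days' exposure to 3-fold serial compound dilutions (8 or 12 points), viability of cells seeded at 5000/well is read by CellTiter-Glo. Runs were done alone or combined with gilteritinib at 10 nM (MV4;11) or 20 nM (MOLM-13); IC50 from nonlinear regression.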

[1] abbreviates: Homo sapiens, 72 h, MOLM-13 cells, compound alone, three days, read-out: MOLM-13 IC50.
Where [2] appears, read: MOLM-13 cells, with gilteritinib, three days, read-out: MOLM-13 IC50 (nM) + 10 nM Gil.
Setting [3] is: Homo sapiens, MV4-11, 72 h, MV4;11 cells, compound alone, three days, 11 IC50.
Where [4] appears, read: MV4;11 cells, with 10 nM gilteritinib, three days, 11 IC50 (nM) + 10 nM Gil.

`CC(C)n1cc2c(-c3cn([C@H]4C[C@H](CNc5ccc6c(c5)C(=O)N(C5CCC(=O)NC5=O)C6=O)C4)nc3C3CC3)ncc(F)c2n1` (stereo partly drawn) [GS-743, 5-(((Trans-3-(3-cyclopropyl-4-(7-fluoro-2-isopropyl-2H-pyrazolo[4,3-c]pyridin-4-yl)-1H-pyrazol-1-yl)cyclobutyl)methyl)amino)-2-(2,6-dioxopiperidin-3-yl)isoindoline-1,3-dione]: the IC50 in the assay on MOLM-13 cells (setting [1]), in the assay with MOLM-13 cells (setting [2]), in the assay with MV4;11 cells (setting [3]) and in the assay on MV4;11 cells (setting [4]) was less than 10 nM in each case.

For the molecule `O=C1CCC(N2C(=O)c3ccc(NC[C@H]4C[C@H](n5cc(-c6cc7c(cn6)cnn7CC(F)(F)F)c(C6CC6)n5)C4)cc3C2=O)C(=O)N1` (relative stereo) [GS-704, 5-(((Trans-3-(3-cyclopropyl-4-(1-(2,2,2-trifluoroethyl)-1H-pyrazolo[4,3-c]pyridin-6-yl)-1H-pyrazol-1-yl)cyclobutyl)methyl)amino)-2-(2,6-dioxopiperidin-3-yl)isoindoline-1,3-dione], the IC50 was 10 to 100 nM in the assay with MOLM-13 cells (setting [1]), less than 10 nM in the assay on MOLM-13 cells (setting [2]), 10 to 100 nM with MV4;11 cells (setting [3]) and less than 10 nM in the assay with MV4;11 cells (setting [4]).

`O=C1CCC(N2C(=O)c3ccc(NC[C@H]4C[C@H](n5cc(NC6CCCCC6)c(C6CC6)n5)C4)cc3C2=O)C(=O)N1` (stereo partly drawn) [GS-667, 5-(((Trans-3-(4-(cyclohexylamino)-3-cyclopropyl-1H-pyrazol-1-yl)cyclobutyl)methyl)amino)-2-(2,6-dioxopiperidin-3-yl)isoindoline-1,3-dione]: the IC50 is 10 to 100 nM in the assay on MOLM-13 cells (Homo sapiens, MOLM-13, 72 h, read-out: MOLM-13 IC50 (nM)); 10 to 100 nM with MOLM-13 cells (read-out: MOLM-13 IC50 (nM) + 10 nM Gil, MOLM-13 cells, with gilteritinib, three days); 10 to 100 nM in the assay on MV4;11 cells (Homo sapiens, MV4-11, 72 h, 11 IC50 (nM)); less than 10 nM with MV4;11 cells (11 IC50 (nM) + 10 nM Gil, MV4;11 cells, with 10 nM gilteritinib, three days).

For `N[C@H]1C[C@H](n2ncc3cnc(-c4cn([C@H]5C[C@H](CNc6ccc7c(c6)C(=O)N(C6CCC(=O)NC6=O)C7=O)C5)nc4C4CC4)cc32)C1` (stereo partly drawn) [GS-776, 5-(((Trans-3-(4-(1-(trans-3-aminocyclobutyl)-1H-pyrazolo[4,3-c]pyridin-6-yl)-3-cyclopropyl-1H-pyrazol-1-yl)cyclobutyl)methyl)amino)-2-(2,6-dioxopiperidin-3-yl)isoindoline-1,3-dione], the IC50 in the assay on MOLM-13 cells (setting [1]) is 10 to 100 nM; in the assay on MOLM-13 cells (setting [2]), less than 10 nM; in the assay on MV4;11 cells (setting [3]), 10 to 100 nM; in the assay with MV4;11 cells (setting [4]) it was less than 10 nM.

`O=C1CCC(N2C(=O)c3ccc(NC[C@H]4C[C@H](n5cc(-c6ncc(F)c7[nH]ccc67)c(C6CC6)n5)C4)cc3C2=O)C(=O)N1` (stereo partly drawn) [GS-733, 5-(((Trans-3-(3-cyclopropyl-4-(7-fluoro-1H-pyrrolo[3,2-c]pyridin-4-yl)-1H-pyrazol-1-yl)cyclobutyl)methyl)amino)-2-(2,6-dioxopiperidin-3-yl)isoindoline-1,3-dione]: the IC50 with MOLM-13 cells (setting [1]), in the assay with MOLM-13 cells (setting [2]), in the assay on MV4;11 cells (setting [3]) and in the assay with MV4;11 cells (setting [4]) was less than 10 nM throughout.

Consider `Cc1nc(-c2cn(CC3CC3CNc3ccc4c(c3)C(=O)N(C3CCC(=O)NC3=O)C4=O)nc2C2CC2)ccc1F` (stereo not shown) [GS-645, 5-(((2-((3-Cyclopropyl-4-(5-fluoro-6-methylpyridin-2-yl)-1H-pyrazol-1-yl)methyl)cyclopropyl)methyl)amino)-2-(2,6-dioxopiperidin-3-yl)isoindoline-1,3-dione], for which the IC50 is more than 1000 nM in the assay with MOLM-13 cells (setting [1]), 100 to 1000 nM in the assay with MOLM-13 cells (setting [2]) and more than 1000 nM in the assay with MV4;11 cells (setting [3]).

As to `Cn1nccc1-c1cn([C@H]2C[C@H](CNc3ccc4c(c3)C(=O)N(C3CCC(=O)NC3=O)C4=O)C2)nc1C1CC1` (stereo partly drawn) [GS-690, 5-(((Trans-3-(3′-cyclopropyl-2-methyl-1′H,2H-[3,4′-bipyrazol]-1′-yl)cyclobutyl)methyl)amino)-2-(2,6-dioxopiperidin-3-yl)isoindoline-1,3-dione], the IC50 with MOLM-13 cells (setting [1]) and in the assay on MV4;11 cells (setting [3]) was more than 1000 nM throughout.

For `O=C1CCC(N2C(=O)c3ccc(NC[C@H]4C[C@H](n5cc(-c6ccc7cn[nH]c7n6)c(C6CC6)n5)C4)cc3C2=O)C(=O)N1` (stereo partly drawn) [GS-714, 5-(((Trans-3-(3-cyclopropyl-4-(1H-pyrazolo[3,4-b]pyridin-6-yl)-1H-pyrazol-1-yl)cyclobutyl)methyl)amino)-2-(2,6-dioxopiperidin-3-yl)isoindoline-1,3-dione], the IC50 in the assay with MOLM-13 cells (setting [1]) is 100 to 1000 nM; in the assay with MOLM-13 cells (setting [2]), 10 to 100 nM; with MV4;11 cells (setting [3]) it was 10 to 100 nM; with MV4;11 cells (setting [4]), 10 to 100 nM.

As to `Cc1cc(F)cnc1-c1cn([C@H]2C[C@H](CNc3ccc4c(c3)C(=O)N(C3CCC(=O)NC3=O)C4=O)C2)nc1C1CC1` (stereo partly drawn) [GS-717, 5-(((Trans-3-(3-cyclopropyl-4-(5-fluoro-3-methylpyridin-2-yl)-1H-pyrazol-1-yl)cyclobutyl)methyl)amino)-2-(2,6-dioxopiperidin-3-yl)isoindoline-1,3-dione], the IC50 is 10 to 100 nM in the assay on MOLM-13 cells (setting [1]), less than 10 nM with MOLM-13 cells (setting [2]), less than 10 nM in the assay on MV4;11 cells (setting [3]) and less than 10 nM with MV4;11 cells (setting [4]).

With `O=C1CCC(N2C(=O)c3ccc(NC[C@H]4C[C@H](n5ncc6ccccc65)C4)cc3C2=O)C(=O)N1` (stereo partly drawn) [GS-728, 5-(((Trans-3-(1H-indazol-1-yl)cyclobutyl)methyl)amino)-2-(2,6-dioxopiperidin-3-yl)isoindoline-1,3-dione], the IC50 in the assay on MOLM-13 cells (setting [1]) was more than 1000 nM; in the assay on MOLM-13 cells (setting [2]) it was 10 to 100 nM; in the assay on MV4;11 cells (setting [3]), more than 1000 nM.

As for `O=C1CCC(N2C(=O)c3ccc(NC[C@H]4C[C@H](n5cc(-c6ncccc6[C@H]6C[C@H](O)C6)c(C6CC6)n5)C4)cc3C2=O)C(=O)N1` (stereo partly shown) [GS-772], the IC50 with MOLM-13 cells (setting [1]) was 10 to 100 nM; in the assay with MOLM-13 cells (setting [2]) it was less than 10 nM; in the assay on MV4;11 cells (setting [3]), 10 to 100 nM; in the assay on MV4;11 cells (setting [4]), 10 to 100 nM.

`O=C1CCC(N2C(=O)c3ccc(NC[C@H]4C[C@H](n5cc(-c6ncc(F)cc6N6CCNCC6)c(C6CC6)n5)C4)cc3C2=O)C(=O)N1` (stereo partly drawn) [GS-683, 5-(((Trans-3-(3-cyclopropyl-4-(5-fluoro-3-(piperazin-1-yl)pyridin-2-yl)-1H-pyrazol-1-yl)cyclobutyl)methyl)amino)-2-(2,6-dioxopiperidin-3-yl)isoindoline-1,3-dione]: the IC50 in the assay with MOLM-13 cells (setting [1]) and in the assay with MV4;11 cells (setting [3]) was more than 1000 nM throughout.

Regarding `Cc1cnc2c(c1)c(C1CC1)nn2[C@H]1C[C@H](CNc2ccc3c(c2)C(=O)N(C2CCC(=O)NC2=O)C3=O)C1` (stereo partly drawn) [GS-673, 5-(((Trans-3-(3-cyclopropyl-5-methyl-1H-pyrazolo[3,4-b]pyridin-1-yl)cyclobutyl)methyl)amino)-2-(2,6-dioxopiperidin-3-yl)isoindoline-1,3-dione], the IC50 with MOLM-13 cells (setting [1]) was more than 1000 nM; in the assay with MOLM-13 cells (setting [2]) it was 100 to 1000 nM; in the assay on MV4;11 cells (setting [3]), more than 1000 nM; with MV4;11 cells (setting [4]), 100 to 1000 nM.

For `O=C1CCC(N2Cc3cc(NC[C@H]4C[C@H](n5cc(-c6cnc7ccccc7n6)c(C6CC6)n5)C4)ccc3C2=O)C(=O)N1` (stereo partly drawn) [GS-651, 3-(5-(((trans-3-(3-Cyclopropyl-4-(quinoxalin-2-yl)-1H-pyrazol-1-yl)cyclobutyl)methyl)amino)-1-oxoisoindolin-2-yl)piperidine-2,6-dione], the IC50 was 10 to 100 nM in the assay with MOLM-13 cells (setting [1]), less than 10 nM in the assay with MOLM-13 cells (setting [2]), less than 10 nM with MV4;11 cells (setting [3]) and less than 10 nM in the assay on MV4;11 cells (setting [4]).

In the case of `Nc1ccnc2c1c(C1CC1)nn2[C@H]1C[C@H](CNc2ccc3c(c2)C(=O)N(C2CCC(=O)NC2=O)C3=O)C1` (stereo partly drawn) [GS-762, 5-(((Trans-3-(4-amino-3-cyclopropyl-1H-pyrazolo[3,4-b]pyridin-1-yl)cyclobutyl)methyl)amino)-2-(2,6-dioxopiperidin-3-yl)isoindoline-1,3-dione], the IC50 in the assay on MOLM-13 cells (setting [1]) and in the assay with MV4;11 cells (setting [3]) was more than 1000 nM throughout.

Consider `CN1CC(c2ccc3ncc(-c4cn([C@H]5C[C@H](CNc6ccc7c(c6)C(=O)N(C6CCC(=O)NC6=O)C7=O)C5)nc4C4CC4)nc3c2)C1` (stereo partly drawn) [GS-655, 5-(((Trans-3-(3-cyclopropyl-4-(7-(1-methylazetidin-3-yl)quinoxalin-2-yl)-1H-pyrazol-1-yl)cyclobutyl)methyl)amino)-2-(2,6-dioxopiperidin-3-yl)isoindoline-1,3-dione], for which the IC50 is more than 1000 nM with MOLM-13 cells (setting [1]), 100 to 1000 nM in the assay with MOLM-13 cells (setting [2]), 100 to 1000 nM in the assay on MV4;11 cells (setting [3]) and 10 to 100 nM in the assay with MV4;11 cells (setting [4]).

In the case of `Cc1nc(-c2cn(C3CC(F)(CNc4ccc5c(c4)C(=O)N(C4CCC(=O)NC4=O)C5=O)C3)nc2C2CC2)ccc1F` (stereo not drawn) [GS-723, 5-(((Trans-3-(3-cyclopropyl-4-(5-fluoro-6-methylpyridin-2-yl)-1H-pyrazol-1-yl)-1-fluorocyclobutyl)methyl)amino)-2-(2,6-dioxopiperidin-3-yl)isoindoline-1,3-dione], the IC50 in the assay with MOLM-13 cells (setting [1]) lay in the range of 100 to 1000 nM; with MOLM-13 cells (setting [2]), 10 to 100 nM; in the assay on MV4;11 cells (setting [3]), 100 to 1000 nM; in the assay with MV4;11 cells (setting [4]), 10 to 100 nM.

As to `Cn1nccc1Nc1cn([C@H]2C[C@H](CNc3ccc4c(c3)C(=O)N(C3CCC(=O)NC3=O)C4=O)C2)nc1C1CC1` (stereo partly drawn) [GS-784, 5-(((Trans-3-(3-cyclopropyl-4-((1-methyl-1H-pyrazol-5-yl)amino)-1H-pyrazol-1-yl)cyclobutyl)methyl)amino)-2-(2,6-dioxopiperidin-3-yl)isoindoline-1,3-dione], the IC50 in the assay with MOLM-13 cells (setting [1]) lay in the range of 100 to 1000 nM; with MOLM-13 cells (setting [2]) it was 100 to 1000 nM; in the assay on MV4;11 cells (setting [3]), 100 to 1000 nM; with MV4;11 cells (setting [4]), 10 to 100 nM.
